Laboratory results from patent publication US20070196886A1 (priority 2004, published 2007).
Where two headings read alike, the source gives them in different places.

Tests used:
Format in all cases: biochemical
[1] = molecular target: T1, [Ile931]β′ RNAP holoenzyme (Escherichia coli, UniProt P0A8T7+P0A8V2, T931I); assay: Transcription assays with RNAP derivative bearing Thr931→Ile substitution in β′
T1 construct: [Ile931]β′ RNAP core and holoenzyme were prepared from strain 397c; hexahistidine (C); made in house; host or cells: E. coli strain 397c (rpoC^ts397) transformed with a pRL663 derivative
Experimental: (§1) Following 15 min at 37° C., 0.5 μl 1 mg/ml heparin was added, and, following a further 2 min at 37° C., RNA synthesis was initiated by addition of 2 μl 5 mM ApA and 125 μM (or 250 μM, 500 μM, and 1 mM) each of [α-^32P]UTP (0.6 Bq/fmol), ATP, CTP, GTP. Following 5 min at 37° C., reactions were terminated by addition of 10 μl 80% formamide, 10 mM EDTA, 0.04% bromophenol blue, and 0.04% xylene cyanol. Products were heated 10 min at 90° C., resolved by urea-PAGE (Sambrook and Russel, (2001)), and quantified using a storage-phosphor scanner (Storm 860; Molecular Dynamics). Identities of tri- and tetranucleotide abortive products were defined as in Borowiec and Gralla, (1985) J. Mol. Biol. 184, 587-598). Data were fit to full-competitive, partial-competitive, full-noncompetitive, partial-noncompetitive, full-uncompetitive, partial-uncompetitive, full-mixed, and partial-mixed models of inhibition using the Fit-To-Model feature of the SigmaPlot Enzyme Kinetics Module (SPSS).

[2] = molecular target: T2, halted transcription elongation complex containing 12 nt of RNA (TEC12) (Escherichia coli, UniProt P0A8T7+P0A8V2); assay: Transcription experiment starting with halted elongation complex (TEC12); conditions: 0, 1, 10, or 100 μM MccJ25; compared with open-complex experiments
T2 construct: made in house
Experimental: TEC12 was prepared by reaction for 5 min at 37° C. with 0.5 mM ApA, and 12.5 μM each of [α-^32P]UTP, ATP, and GTP.

[3] = molecular target: RNAP holoenzyme (Escherichia coli, UniProt P0A8T7+P0A8V2); conditions: for Vmax: FIG. 3E
Experimental: as §1

Microcin J25 [MccJ25]
inhibition upon substitution of residue 931 of the RNAP β′ subunit [1]: overcome completely | inhibition of formation of full-length product starting with halted elongation complex [2]: equivalent results | mode of inhibition with respect to NTPs [3]: partial competitive | inhibition of formation of abortive products (3 nt and 4 nt RNA species) ([3]; 100 μM MccJ25, 5 min at 37° C.): 86% | inhibition of formation of the full-length product (26 nt RNA species) ([3]; 100 μM MccJ25, 5 min at 37° C.): 94% | effect of high NTP concentrations on inhibition ([3]; NTP 12.5, 25, 50, 100 μM): can overcome inhibition | Vmax ([3]; at 1 μM MccJ25): 1.9±0.4 mol/mol template/min | Vmax ([3]; at 10 μM MccJ25): 1.4±0.7 mol/mol template/min
